Data from article PMC8022858, “Discovery of bone morphogenetic protein 7-derived peptide sequences that attenuate the human osteoarthritic chondrocyte phenotype” (Molecular Therapy. Methods & Clinical Development, 2021).

Test system: OA-HACs with NKX3-2 knockdown
Assay: NKX3-2 siRNA knockdown and peptide treatment, hypertrophy gene expression
Type: cell-based, human
Details: OA-HAC pool (n = 4 donors), then 100 nM peptide 24 h (Figure 5A); for chondrocyte hypertrophy-inhibiting bioactivity in control (scrambled siRNA) condition: 100 nM siRNA 24 h; for rescue of hypertrophy-inducing consequences of NKX3-2 knockdown: NKX3-2 siRNA 100 nM 24 h
Text: A chondrocyte phenotypic consequence of exposure to peptides p[63−82] or p[113−132] is an overall attenuation of hypertrophy. Previously, we[17]^,[27] and others[29]^,[30] recognized NKX3-2 (BAPX1) as an important negative regulator of chondrocyte hypertrophy, and the hypertrophy-inhibiting action of BMP7 on OA-HACs is, at least in part, mediated via NKX3-2.[27] Taking into consideration that the ability to induce NKX3-2 expression was one of the screening criteria for the identification of the here-described, BMP7-derived peptides (Figures 2 and S2), we next investigated whether NKX3-2 is involved in the bioactivity of peptides p[63−82] and p[113−132]. By means of small interfering (si)RNA transfection, NKX3-2 expression was reduced in a pool of OA-HACs. […] Treatment of control conditions (scrambled siRNA) with peptide p[63−82] or p[113−132]confirmed the peptides’ chondrocyte hypertrophy-inhibiting bioactivity (Figure 5A).
Figure 5 Molecular characterization of peptides p[63−82] and p[113−132] (A) A pool of OA-HACs (n = 4 donors) was transfected with a scrambled siRNA or with an NKX3-2 siRNA (100 nM siRNA) and cultured for 24 h. Cultures were then exposed to peptide p[63−82] or p[113−132] (100 nM peptide). Samples were harvested 24 h later and analyzed for the expression of the indicated mRNAs (normalized to 28S rRNA). (B) SW1353 chondrocytic cells were transfected with BRE (SMAD1/5/8 reporter) or CAGA12 (SMAD2/3 reporter) firefly luciferase-reporter plasmids. A CMV-Gaussia plasmid was cotransfected as a transfection control. Cells were then cultured for 24 h and subsequently exposed to control, p[63−82], or p[113−132] for 8 h. Firefly and Gaussia bioluminescence were measured in cells and medium (respectively), and relative light units (RLUs) of firefly luciferase were normalized for the Gaussia luciferase signal. The normalized firefly luciferase signal of the control condition was set at 1, and peptide conditions were calculated relative to the control condition (FL/GL). Error bars represent mean ± SEM; statistical significance for peptide conditions versus siScrambled or siNKX3-2 (A) or control condition (B) as determined by unpaired two-tailed Student’s t test is represented as ∗p < 0.05, ∗∗p < 0.01, and ∗∗∗p < 0.001. […] An alanine-scanning bioactivity score (sum of the fold change gene expression of COL10A1, ALPL, MMP13, and COL2A1 plus NKX3-2 of the alanine-substituted peptides versus the wild-type p[63−82] peptide) was calculated for each alanine substitution in the amino acid sequence of peptide p[63−82] and is represented by the height of each letter on the y axis (data in Figure S4). […]

Row | Substance | chondrocyte hypertrophy-inhibiting bioactivity in control (scrambled siRNA) condition | rescue of hypertrophy-inducing consequences of NKX3-2 knockdown
1 | H-AAYYSEGESAFPLNSYMNAT-OH [p[63−82]] | confirmed | did not show rescue
2 | H-SVLYFDDSSNVILKKYRNMV-OH [p[113−132]] | confirmed | did not show rescue
